Results taken from publication PMC7558026, “Exploring and applying the substrate promiscuity of a C-glycosyltransferase in the chemo-enzymatic synthesis of bioactive C-glycosides” (Nature Communications, 2020).
Values joined by “and” are separate entries in the source; they are usually repeats but may differ in a detail not shown here. Equal entries are not always repeated.

Experiments:
AbCGT [1] = test: Effects of pH, temperature and divalent metal ions on AbCGT activity (phloretin 17 + UDP-Glc); assay type: biochemical, Aloe barbadensis; settings: for relative activity / conversion rates of Phloretin: in presence of the divalent cation or EDTA; for relative activity: relative to CK; for effect of divalent metal ion on catalytic activity of AbCGT (in words): 5 mM, phloretin (17) + UDP-Glc, 10 min
Experimental: To assay for the optimal reaction temperature, the reaction mixtures were incubated at pH 11.0 and different temperatures (15–60 °C). To test the necessity of divalent metal ions for AbCGT, BaCl2, CaCl2, CoCl2, CuCl2, FeCl2, MgCl2, MnCl2, ZnCl2, and EDTA were used individually at a final concentration of 5 mM. […] For quantification, three parallel assays were routinely carried out.

AbCGT [2] = biological target: AbCGT (Aloe vera, UniProt A0A7G9P699); test: Glycosyltransferase activity assay, purified AbCGT (wild type) with aglycon acceptors and UDP-Glc; assay type: biochemical, Aloe barbadensis; settings: aglycon acceptor with UDP-Glc, pH 7.4, 30 °C, up to 12 h; Reaction-1 to -3
Experimental: Due to the instability of some acceptors in the buffer of pH 11.0, the reactions were performed under the physiological conditions (pH 7.4, 30 °C) to compare the catalytic activities of AbGT27 with different substrates under the same conditions. The reactions were performed at 30 °C for up to 12 h and terminated by the addition of 200 μL of ice-cold methanol. Subsequently, samples were centrifuged at 15,000 × g for 30 min to collect the supernatant, and aliquots were analyzed by HPLC-UV/ESIMS. […] The gradient programs were used for the analysis of the reactions (Supplementary Table 6). The conversion rates of the enzyme reactions were calculated from peak areas of glycosylated products and substrates as analyzed by HPLC. To facilitate inferential statistical analysis, three parallel assays were routinely performed; the means ± SD from triplicate analyses are reported here.

Chain of AbCGT (Aloe vera, UniProt A0A7G9P699) (A0A7G9P699 entry or part of it): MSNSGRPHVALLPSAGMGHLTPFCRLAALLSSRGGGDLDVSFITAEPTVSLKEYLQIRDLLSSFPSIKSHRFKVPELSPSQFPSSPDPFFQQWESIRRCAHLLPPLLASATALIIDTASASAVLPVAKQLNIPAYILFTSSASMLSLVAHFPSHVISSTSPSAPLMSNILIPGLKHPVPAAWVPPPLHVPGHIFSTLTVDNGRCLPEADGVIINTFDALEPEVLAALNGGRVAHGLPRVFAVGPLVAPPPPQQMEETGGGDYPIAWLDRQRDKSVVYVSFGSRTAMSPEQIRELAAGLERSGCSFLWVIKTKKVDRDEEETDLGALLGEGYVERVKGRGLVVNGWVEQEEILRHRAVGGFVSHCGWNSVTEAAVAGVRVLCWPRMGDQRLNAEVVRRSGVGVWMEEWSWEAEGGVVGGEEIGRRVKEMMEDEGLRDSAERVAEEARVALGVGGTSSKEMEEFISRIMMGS

SMILES	relative activity (AbCGT [1]; reaction-1)	relative activity (AbCGT [1]; reaction-2)	relative activity (AbCGT [1]; reaction-3)	conversion rates of Phloretin (AbCGT [1]; reaction-1)	conversion rates of Phloretin (AbCGT [1]; reaction-2)	conversion rates of Phloretin (AbCGT [1]; reaction-3)	effect of divalent metal ion on catalytic activity of AbCGT (in words) (AbCGT [1])	conversion rates, O,N,S-glycosylation (AbCGT [2])	conversion rates, di-C-glycosylation (AbCGT [2])	conversion rates, mono-C-glycosylation (AbCGT [2])
[Ba+2].[Cl-].[Cl-] [Ba2+]	119.8	122.9	119.3	62	63.6	61.7	–	–	–	–
[Cl-].[Cl-].[Mg+2] [Mg^2+]	–	–	–	–	–	–	greatly enhanced the catalytic activity of AbCGT	–	–	–
CC(=O)c1c(O)cc(O)c(C(C)=O)c1O [Compound 12]	–	–	–	–	–	–	–	0%	0%	100%
Cc1cc(=O)oc2cc(S)ccc12 [Compound 25, 7-mercapto-4-methylcoumarin]	–	–	–	–	–	–	–	87% and 86% and 85.3%	0%	0%
[Ca+2].[Cl-].[Cl-] [Ca^2+]	–	–	–	–	–	–	greatly enhanced the catalytic activity of AbCGT	–	–	–
O=Cc1c(O)cc(O)cc1O [Compound 10]	–	–	–	–	–	–	–	0%	100%	0%
CC(=O)c1c(C)cc(O)cc1O [Compound 9]	–	–	–	–	–	–	–	0%	0%	45.2% and 41.8% and 43%
[Cl-].[Cl-].[Mg+2] [Mg2+]	157.2	160.4	167.6	81.3	83	86.7	–	–	–	–
[Cu+2] [Cu2+]	0.0	0.0	0.0	0	0	0	–	–	–	–
O=C(OCCCc1ccccc1)c1c(O)cc(O)cc1O [Compound 18]	–	–	–	–	–	–	–	0%	93.8% and 92% and 91.6%	3.2% and 4.7% and 4%
[Co+2] [Co2+]	36.5	41.0	43.9	18.9	21.2	22.7	–	–	–	–
[Ca+2].[Cl-].[Cl-] [Ca2+]	149.8	161.0	139.4	77.5	83.3	72.1	–	–	–	–
[Ni+2] [Ni2+]	13.7	12.0	15.5	7.1	6.2	8	–	–	–	–
O=C(c1ccc(O)c(O)c1)c1c(O)cc(O)cc1O [Compound 19]	–	–	–	–	–	–	–	0%	63% and 63.5% and 65.1%	37% and 36.5% and 34.9%
Cc1cc(O)cc(O)c1C=O [Compound 8]	–	–	–	–	–	–	–	0%	0%	86.7% and 87.5% and 90.2%
O=C(O)CN(CCN(CC(=O)O)CC(=O)O)CC(=O)O [EDTA]	89.5	90.9	102.3	46.3	47	52.9	–	–	–	–
[Cl][Mn][Cl] [Mn^2+]	–	–	–	–	–	–	greatly enhanced the catalytic activity of AbCGT	–	–	–
[Cl][Mn][Cl] [Mn2+]	162.4	178.6	171.3	84	92.4	88.6	–	–	–	–
[Ba+2].[Cl-].[Cl-] [Ba^2+]	–	–	–	–	–	–	greatly enhanced the catalytic activity of AbCGT	–	–	–
COc1cc(OC)c(C(C)=O)c(OC)c1 [Compound 15]	–	–	–	–	–	–	–	0%	0%	0%
Cc1cc(=O)oc2cc(O)ccc12 [Compound 24, 7-hydroxy-4-methylcoumarin]	–	–	–	–	–	–	–	90% and 92% and 94.8%	0%	0%
CCCCC(=O)c1c(O)cc(O)cc1O [Compound 16]	–	–	–	–	–	–	–	0%	100%	0%
[Zn+2] [Zn2+]	1.9	3.9	1.9	1	2	1	–	–	–	–
[Fe+2] [Fe2+]	23.0	24.7	18.0	11.9	12.8	9.3	–	–	–	–
